Several values for one entry are separate records, joined by “and”; a condition that tells them apart may be missing. Identical values can stand only once.
Tests used:
IRAK4 = IRAK4 (Homo sapiens, UniProt Q9NWZ3); assay: Kinase selectivity profiling, Interleukin 1 receptor-associated kinase 4; assay type: biochemical; details: read-out: Percentage inhibition of IRAK4
Protocol: (§1) The selectivity of compounds against a panel of 50 human protein kinases was assessed using a non-radiometric assay.

HCT116 cells [1] = assay: Drug sensitivity assay, ATP production, 2D culture; assay type: cell-based; details: Homo sapiens, HCT-116; HCT116, 2D culture, 72 h; read-out: IC50, ATP production (cell growth)
Protocol: (§2) Cells were seeded at a density of 3,000 cells per well in 96-well plates. Twenty-four hours after seeding, the cells were exposed to serially diluted compounds (0.003, 0.01, 0.03, 0.1, 0.3, 1, 3 and 10 μM) and incubated for 72 h (Fig. 3a). Patient-derived colorectal cancer spheroids were dissociated into single cells with Accutase (Nacalai Tesque) and seeded at a density of 3,000 cells per well into Ultra-Low attachment multiwall 96-well plates (Corning; Fig. 6d). ATP was measured with a CellTiter-Glo Luminescent Cell Viability Assay kit (Promega). Experiments were performed in triplicate and repeated at least two times.

CaMK4 = CaMK4 (Homo sapiens, UniProt Q16566); assay: Kinase selectivity profiling, Calcium/calmodulin-dependent protein kinase IV; assay type: biochemical; details: read-out: Percentage inhibition of CaMK4
Protocol: as §1

HGK = HGK (Homo sapiens, UniProt O95819); assay: Kinase selectivity profiling, Hematopoietic progenitor kinase; assay type: biochemical; details: 0.1 µM inhibitor, ATP at Km
Chain of HGK (O95819 whole entry): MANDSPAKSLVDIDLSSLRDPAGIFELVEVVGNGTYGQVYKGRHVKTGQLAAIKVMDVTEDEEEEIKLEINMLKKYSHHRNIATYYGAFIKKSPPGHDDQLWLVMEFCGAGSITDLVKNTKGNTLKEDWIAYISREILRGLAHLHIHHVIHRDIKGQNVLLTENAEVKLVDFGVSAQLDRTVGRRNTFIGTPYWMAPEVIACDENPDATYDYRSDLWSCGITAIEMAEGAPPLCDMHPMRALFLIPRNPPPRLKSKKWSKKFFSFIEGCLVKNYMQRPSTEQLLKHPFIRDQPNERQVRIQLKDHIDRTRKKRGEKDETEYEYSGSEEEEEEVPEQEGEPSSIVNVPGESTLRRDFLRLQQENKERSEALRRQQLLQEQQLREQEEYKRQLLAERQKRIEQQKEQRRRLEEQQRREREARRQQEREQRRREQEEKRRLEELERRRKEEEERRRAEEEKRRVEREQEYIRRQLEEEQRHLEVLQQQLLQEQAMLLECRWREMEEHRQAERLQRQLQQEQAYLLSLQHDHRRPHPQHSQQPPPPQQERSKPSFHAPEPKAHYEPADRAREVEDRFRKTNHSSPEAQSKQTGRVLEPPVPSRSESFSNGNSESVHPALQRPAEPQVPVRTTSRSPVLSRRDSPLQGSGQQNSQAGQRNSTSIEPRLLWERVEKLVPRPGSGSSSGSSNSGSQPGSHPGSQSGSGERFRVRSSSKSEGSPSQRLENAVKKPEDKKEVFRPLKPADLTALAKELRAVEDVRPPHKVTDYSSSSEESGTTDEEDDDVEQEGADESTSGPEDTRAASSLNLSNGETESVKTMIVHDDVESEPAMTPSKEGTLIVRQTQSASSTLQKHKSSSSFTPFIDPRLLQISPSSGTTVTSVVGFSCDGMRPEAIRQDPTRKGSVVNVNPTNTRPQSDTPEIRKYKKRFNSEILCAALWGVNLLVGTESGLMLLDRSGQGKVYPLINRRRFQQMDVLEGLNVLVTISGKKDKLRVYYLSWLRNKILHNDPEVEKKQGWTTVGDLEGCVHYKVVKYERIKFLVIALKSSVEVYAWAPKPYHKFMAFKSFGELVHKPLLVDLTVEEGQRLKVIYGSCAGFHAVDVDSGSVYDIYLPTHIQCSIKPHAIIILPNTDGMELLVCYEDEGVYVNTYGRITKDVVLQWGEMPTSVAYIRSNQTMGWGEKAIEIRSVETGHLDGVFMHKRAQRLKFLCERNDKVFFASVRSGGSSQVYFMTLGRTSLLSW
Protocol: as §1

[2] = tested on: patient-derived colorectal cancer spheroids #6; assay: Limiting dilution analysis of sphere reformation, spheroids #6; assay type: cell-based, human; details: spheroids #6, 3-day Treatment
Protocol: Spheroids were gently dissociated into single cells with the use of StemPro Accutase (Thermo Fisher Scientific), and 1,000, 100, 10 or 1 viable cells were seeded into each well of a 96-well U-bottom PrimeSurface plate (Supplementary Figs 10b and 12). Experiments were performed in triplicate and repeated at least two times.

JNK2 = JNK2 (Homo sapiens, UniProt P45984); assay: Kinase selectivity profiling, c-Jun kinase 2; assay type: biochemical; details: read-out: Percentage inhibition of JNK2
Chain of JNK2 (P45984 whole entry): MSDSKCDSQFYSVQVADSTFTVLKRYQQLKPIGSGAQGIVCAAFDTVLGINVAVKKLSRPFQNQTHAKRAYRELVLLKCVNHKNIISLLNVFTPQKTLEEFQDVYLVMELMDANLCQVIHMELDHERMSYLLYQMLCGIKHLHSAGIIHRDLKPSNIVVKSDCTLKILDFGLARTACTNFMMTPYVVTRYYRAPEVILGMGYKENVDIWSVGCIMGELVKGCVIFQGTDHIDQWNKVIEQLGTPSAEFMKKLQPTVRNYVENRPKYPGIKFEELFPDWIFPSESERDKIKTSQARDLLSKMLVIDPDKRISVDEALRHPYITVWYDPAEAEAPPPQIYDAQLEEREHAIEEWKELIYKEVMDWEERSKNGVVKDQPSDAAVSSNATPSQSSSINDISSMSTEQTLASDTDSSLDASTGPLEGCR
Protocol: as §1

AurA = AurA (Homo sapiens, UniProt O14965); assay: Kinase selectivity profiling, Aurora kinase A; assay type: biochemical; details: read-out: Percentage inhibition of AurA
Protocol: as §1

FLT3 = FLT3 (Homo sapiens, UniProt P36888); assay: Kinase selectivity profiling, Fms-related tyrosine kinase 3; assay type: biochemical; details: 0.1 µM inhibitor, ATP at Km; 0.1 µM
Chain of FLT3 (P36888 27-993): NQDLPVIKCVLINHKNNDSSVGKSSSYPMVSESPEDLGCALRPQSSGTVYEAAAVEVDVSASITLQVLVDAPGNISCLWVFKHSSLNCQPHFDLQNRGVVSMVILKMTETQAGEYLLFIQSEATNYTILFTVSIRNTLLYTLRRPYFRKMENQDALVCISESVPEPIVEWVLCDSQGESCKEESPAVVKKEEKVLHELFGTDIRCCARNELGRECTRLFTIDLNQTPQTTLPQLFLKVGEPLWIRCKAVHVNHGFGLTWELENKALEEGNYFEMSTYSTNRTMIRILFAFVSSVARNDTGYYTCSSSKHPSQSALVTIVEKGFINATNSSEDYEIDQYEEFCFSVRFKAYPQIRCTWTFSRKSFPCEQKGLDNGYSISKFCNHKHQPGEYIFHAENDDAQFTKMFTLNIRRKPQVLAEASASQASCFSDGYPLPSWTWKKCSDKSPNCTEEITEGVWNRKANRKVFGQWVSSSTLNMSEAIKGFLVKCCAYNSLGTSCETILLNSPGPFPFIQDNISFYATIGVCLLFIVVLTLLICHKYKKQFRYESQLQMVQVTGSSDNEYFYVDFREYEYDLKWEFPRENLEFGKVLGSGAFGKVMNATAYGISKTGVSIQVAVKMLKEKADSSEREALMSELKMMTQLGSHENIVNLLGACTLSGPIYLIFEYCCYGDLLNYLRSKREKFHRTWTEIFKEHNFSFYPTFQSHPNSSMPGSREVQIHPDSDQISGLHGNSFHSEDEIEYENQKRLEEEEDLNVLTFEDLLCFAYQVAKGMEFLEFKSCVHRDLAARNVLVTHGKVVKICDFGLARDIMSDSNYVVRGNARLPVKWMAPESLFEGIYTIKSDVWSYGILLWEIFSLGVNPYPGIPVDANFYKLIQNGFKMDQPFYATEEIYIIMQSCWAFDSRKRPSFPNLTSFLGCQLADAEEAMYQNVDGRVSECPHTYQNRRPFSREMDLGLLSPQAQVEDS
Protocol: as §1

[3] = tested on: patient-derived colorectal cancer spheroids #6; assay: ATP production of patient-derived spheroid #6; assay type: cell-based; details: Homo sapiens, 72 h; spheroid #6, 3 days
Protocol: as §2

LCK = LCK (Homo sapiens, UniProt P06239); assay: Kinase selectivity profiling, Lymphocyte-specific protein tyrosine kinase; assay type: biochemical; details: read-out: Percentage inhibition of LCK
Chain of LCK (P06239 whole entry): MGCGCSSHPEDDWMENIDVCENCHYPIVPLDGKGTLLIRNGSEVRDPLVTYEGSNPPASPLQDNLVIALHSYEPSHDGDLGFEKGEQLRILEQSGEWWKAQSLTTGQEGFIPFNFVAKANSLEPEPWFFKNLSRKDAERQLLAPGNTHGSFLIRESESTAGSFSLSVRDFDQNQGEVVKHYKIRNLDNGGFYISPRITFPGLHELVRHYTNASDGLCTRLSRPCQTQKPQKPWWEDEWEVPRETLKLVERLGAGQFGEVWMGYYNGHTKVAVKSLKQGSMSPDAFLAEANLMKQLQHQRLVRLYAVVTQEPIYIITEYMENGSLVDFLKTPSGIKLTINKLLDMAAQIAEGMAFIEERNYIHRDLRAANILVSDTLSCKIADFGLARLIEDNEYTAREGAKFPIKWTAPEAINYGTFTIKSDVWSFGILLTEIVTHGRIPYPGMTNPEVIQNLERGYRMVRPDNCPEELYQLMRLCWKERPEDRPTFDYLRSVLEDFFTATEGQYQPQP
Protocol: as §1

CHK1 = CHK1 (Homo sapiens, UniProt O14757); assay: Kinase selectivity profiling, Checkpoint kinase 1; assay type: biochemical; details: read-out: Percentage inhibition of CHK1
Protocol: as §1

NEK2 = NEK2 (Homo sapiens, UniProt P51955); assay: Kinase selectivity profiling, Never in mitosis gene A-related kinase 2; assay type: biochemical; details: read-out: Percentage inhibition of NEK2
Protocol: as §1

FGFR1 = FGFR1 (Homo sapiens, UniProt P11362); assay: Kinase selectivity profiling, Fibroblast growth factor receptor 1; assay type: biochemical; details: read-out: Percentage inhibition of FGFR1
Protocol: as §1

SYK = SYK (Homo sapiens, UniProt P43405); assay: Kinase selectivity profiling, Spleen tyrosine kinase; assay type: biochemical; details: read-out: Percentage inhibition of SYK
Protocol: as §1

EPHA2 = EPHA2 (Homo sapiens, UniProt P29317); assay: Kinase selectivity profiling, EPH receptor A2; assay type: biochemical; details: read-out: Percentage inhibition of EPHA2
Protocol: as §1

GSK3β = GSK3β (Homo sapiens, UniProt P49841); assay: Kinase selectivity profiling, Glycogen synthase kinase 3β; assay type: biochemical; details: read-out: Percentage inhibition of GSK3β
Chain of GSK3β (P49841 whole entry): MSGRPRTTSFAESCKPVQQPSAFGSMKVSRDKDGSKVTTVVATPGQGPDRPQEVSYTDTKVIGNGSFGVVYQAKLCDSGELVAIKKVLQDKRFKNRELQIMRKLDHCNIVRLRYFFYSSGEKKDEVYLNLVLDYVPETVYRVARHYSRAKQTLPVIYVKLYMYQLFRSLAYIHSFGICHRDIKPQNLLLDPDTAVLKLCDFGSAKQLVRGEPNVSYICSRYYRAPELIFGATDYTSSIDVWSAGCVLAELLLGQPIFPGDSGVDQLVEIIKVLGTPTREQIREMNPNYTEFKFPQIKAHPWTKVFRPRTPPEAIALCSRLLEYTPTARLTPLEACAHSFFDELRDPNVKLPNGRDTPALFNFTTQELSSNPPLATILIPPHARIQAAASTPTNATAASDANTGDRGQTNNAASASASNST
Protocol: as §1

SGK = SGK (Homo sapiens, UniProt O00141); assay: Kinase selectivity profiling, Serum/glucocorticoid regulated kinase; assay type: biochemical; details: read-out: Percentage inhibition of SGK
Chain of SGK (O00141 whole entry): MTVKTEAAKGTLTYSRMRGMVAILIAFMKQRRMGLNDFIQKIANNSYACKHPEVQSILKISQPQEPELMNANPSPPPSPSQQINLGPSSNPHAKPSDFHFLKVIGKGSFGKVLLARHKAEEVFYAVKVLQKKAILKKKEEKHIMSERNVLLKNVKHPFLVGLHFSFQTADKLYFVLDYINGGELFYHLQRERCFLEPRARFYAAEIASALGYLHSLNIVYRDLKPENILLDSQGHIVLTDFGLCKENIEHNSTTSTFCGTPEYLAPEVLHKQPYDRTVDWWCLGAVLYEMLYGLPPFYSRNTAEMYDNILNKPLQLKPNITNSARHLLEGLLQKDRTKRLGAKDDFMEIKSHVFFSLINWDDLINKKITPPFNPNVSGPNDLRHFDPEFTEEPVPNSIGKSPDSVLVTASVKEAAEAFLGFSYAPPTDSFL
Protocol: as §1

EPHA4 = EPHA4 (Homo sapiens, UniProt P54764); assay: Kinase selectivity profiling, EPH receptor A4; assay type: biochemical; details: read-out: Percentage inhibition of EPHA4
Protocol: as §1

CSK = CSK (Homo sapiens, UniProt P41240); assay: Kinase selectivity profiling, c-Src tyrosine kinase; assay type: biochemical; details: read-out: Percentage inhibition of CSK
Protocol: as §1

SRC = SRC (Homo sapiens, UniProt P12931); assay: Kinase selectivity profiling, v-Src sarcoma viral oncogene homolog; assay type: biochemical; details: read-out: Percentage inhibition of SRC
Chain of SRC (P12931 whole entry): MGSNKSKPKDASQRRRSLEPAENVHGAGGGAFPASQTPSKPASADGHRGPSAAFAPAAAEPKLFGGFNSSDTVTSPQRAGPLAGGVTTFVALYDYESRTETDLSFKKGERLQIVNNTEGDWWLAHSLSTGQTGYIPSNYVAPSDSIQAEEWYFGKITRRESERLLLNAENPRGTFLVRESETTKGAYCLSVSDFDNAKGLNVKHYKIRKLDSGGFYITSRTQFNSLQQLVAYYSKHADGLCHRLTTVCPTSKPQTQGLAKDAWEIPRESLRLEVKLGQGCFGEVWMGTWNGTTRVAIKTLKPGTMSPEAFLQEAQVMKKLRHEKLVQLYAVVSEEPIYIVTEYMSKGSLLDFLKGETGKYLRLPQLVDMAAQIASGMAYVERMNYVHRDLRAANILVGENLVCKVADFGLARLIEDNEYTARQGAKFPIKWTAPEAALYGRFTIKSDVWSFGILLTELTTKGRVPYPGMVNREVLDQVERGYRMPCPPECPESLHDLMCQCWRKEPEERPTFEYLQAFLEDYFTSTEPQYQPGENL
Protocol: as §1

HCT116 cells [4] = assay: Soft-agar colony-formation assay; assay type: cell-based; details: Homo sapiens, HCT-116, 336 h; HCT116, 14 days
Protocol: One milliliter of 0.33% agar (Lonza) in culture medium containing 1.5 × 10^4 cells was plated onto 1 ml of solidified base agar (0.5%) in each well of six-well clusters. The top agar layer was covered with culture medium containing serially diluted compounds. The medium was replaced every three days. Cell number was determined colorimetrically at 450–650 nm using the Cell Count Reagent SF (Nacalai Tesque). IC50 values were obtained by fitting a four-parameter dose–response curve to normalized data using GraphPad Prism version 5 (GraphPad software; Fig. 3b). Experiments were performed in triplicate and repeated at least two times.

DAPK1 = DAPK1 (Homo sapiens, UniProt P53355); assay: Kinase selectivity profiling, Death-associated protein kinase 1; assay type: biochemical; details: read-out: Percentage inhibition of DAPK1
Protocol: as §1

p70S6K = p70S6K (Homo sapiens, UniProt P23443); assay: Kinase selectivity profiling, Ribosomal protein S6 kinase; assay type: biochemical; details: read-out: Percentage inhibition of p70S6K
Protocol: as §1

CK1ε = CK1ε (Homo sapiens, UniProt P49674); assay: Kinase selectivity profiling, Casein kinase 1ε; assay type: biochemical; details: read-out: Percentage inhibition of CK1ε
Protocol: as §1

PBK = PBK (Homo sapiens, UniProt Q96KB5); assay: Kinase selectivity profiling, PDZ binding kinase; assay type: biochemical; details: read-out: Percentage inhibition of PBK
Protocol: as §1

PAK2 = PAK2 (Homo sapiens, UniProt Q13177); assay: Kinase selectivity profiling, P21 protein (Cdc42/Rac)-activated kinase 2; assay type: biochemical; details: read-out: Percentage inhibition of PAK2
Chain of PAK2 (Q13177 whole entry): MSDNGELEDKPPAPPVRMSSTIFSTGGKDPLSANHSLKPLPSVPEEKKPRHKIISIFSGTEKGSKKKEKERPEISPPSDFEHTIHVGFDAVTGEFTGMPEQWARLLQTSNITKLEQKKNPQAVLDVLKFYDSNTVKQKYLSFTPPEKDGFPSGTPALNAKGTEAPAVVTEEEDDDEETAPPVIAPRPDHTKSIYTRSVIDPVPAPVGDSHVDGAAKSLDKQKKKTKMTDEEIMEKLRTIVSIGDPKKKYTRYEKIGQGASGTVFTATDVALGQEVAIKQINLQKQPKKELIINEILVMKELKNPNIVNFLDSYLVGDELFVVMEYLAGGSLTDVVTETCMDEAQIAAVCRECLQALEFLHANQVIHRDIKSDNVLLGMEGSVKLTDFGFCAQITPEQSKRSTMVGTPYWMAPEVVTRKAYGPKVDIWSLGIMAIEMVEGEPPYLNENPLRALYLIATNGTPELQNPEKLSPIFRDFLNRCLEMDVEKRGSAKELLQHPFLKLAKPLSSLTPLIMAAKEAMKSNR
Protocol: as §1

Erk2 = Erk2 (Homo sapiens, UniProt P28482); assay: Kinase selectivity profiling, Mitogen-activated protein kinase 1; assay type: biochemical; details: read-out: Percentage inhibition of Erk2
Protocol: as §1

## O[C@H]1CC[C@@H](Oc2cccc3cnc(Nc4ccc5nc[nH]c5c4)nc23)CC1 [NCB-0846, cis-4-(2-(3H-benzo[d]imidazol-5-ylamino)quinazolin-8-yloxy)cyclohexanol]
IRAK4
  inhibition at 0.1 µM: 14.7%
HCT116 cells [1]
  IC50: 360 nM
CaMK4
  inhibition at 0.1 µM: -1.5%
HGK; 0.1 µM
  Percentage inhibition of HGK: 80.5%
HGK; read-out: Percentage inhibition of HGK
  inhibition at 0.1 µM: > 80%
[2]; 0.1 μM, 1 cell per well
  Sphere-containing wells/total wells: 12/96
[2]; 0.1 μM, 10 cells per well
  Sphere-containing wells/total wells: 77/96
[2]; 0.1 μM, 100 cells per well
  Sphere-containing wells/total wells: 96/96
[2]; 0.1 μM, 1000 cells per well
  Sphere-containing wells/total wells: 96/96
[2]; 0.3 μM, 1 cell per well
  Sphere-containing wells/total wells: 3/96
[2]; 0.3 μM, 10 cells per well
  Sphere-containing wells/total wells: 72/96
[2]; 0.3 μM, 100 cells per well
  Sphere-containing wells/total wells: 96/96
[2]; 0.3 μM, 1000 cells per well
  Sphere-containing wells/total wells: 96/96
[2]; 1.0 μM, 1 cell per well
  Sphere-containing wells/total wells: 2/96
[2]; 1.0 μM, 10 cells per well
  Sphere-containing wells/total wells: 49/96
[2]; 1.0 μM, 100 cells per well
  Sphere-containing wells/total wells: 94/96
[2]; 1.0 μM, 1000 cells per well
  Sphere-containing wells/total wells: 96/96
JNK2
  inhibition at 0.1 µM: 0.3%
AurA
  inhibition at 0.1 µM: 41.4%
FLT3
  Percentage inhibition of FLT3: > 80% and 104.1%
[3]
  IC50: 680 nM
LCK
  inhibition at 0.1 µM: 23.6%
CHK1
  inhibition at 0.1 µM: 10.1%
NEK2
  inhibition at 0.1 µM: -3.5%
FGFR1
  inhibition at 0.1 µM: 32.5%
SYK
  inhibition at 0.1 µM: 7.6%
EPHA2
  inhibition at 0.1 µM: 13.6%
GSK3β
  inhibition at 0.1 µM: 27.7%
SGK
  inhibition at 0.1 µM: 14.7%
EPHA4
  inhibition at 0.1 µM: 5.5%
CSK
  inhibition at 0.1 µM: -1%
SRC
  inhibition at 0.1 µM: 19%
HCT116 cells [4]
  IC50: 190 nM
DAPK1
  inhibition at 0.1 µM: 3.7%
p70S6K
  inhibition at 0.1 µM: 11%
CK1ε
  inhibition at 0.1 µM: -2.8%
PBK
  inhibition at 0.1 µM: -3.9%
PAK2
  inhibition at 0.1 µM: -7.8%
Erk2
  inhibition at 0.1 µM: 0.7%

— publication PMC5007443, “TNIK inhibition abrogates colorectal cancer stemness” (Nature Communications, 2016)
